Laboratory results published in US12509446B2, “FYN and VEGFR2 kinase inhibitors” (ROTTAPHARM BIOTECH S.R.L., priority 2019, dated 2025).
Where two headings read alike, the source gives them in different places.

How the values were obtained:
[1] = target: Fyn (Homo sapiens (Human), UniProt P06241); experiment: Z′-LYTE in vitro Fyn kinase activity assay; type: biochemical; settings: ATP 50 μM; read-out: FYN KINASE INHIBITION IC50
Description: The Fyn kinase inhibitory activity of representative examples of compounds of Formula (1) was evaluated by Z′-LYTE™ Kinase Assay Platform (Invitrogen). Compounds were evaluated towards active Fyn (full length active, molecular weight 87.1 kDa; Invitrogen). […] Samples representing the 0% inhibition (or total enzymatic activity) were in the presence of compound diluent (1% DMSO final in Reaction Buffer 50 mMHepes, 10 mM MgCl2, 1 mM EGTA, 0.01% Brij-35, pH 7.5). The kinase reaction was carried out in a total volume of 10 μl, for 60 minutes at 25° C. The 0% Phosphorylation (i.e. no ATP) and 100% Phosphorylation Assay Controls, included in each plate, allowed to calculate the percent phosphorylation achieved in the specific reaction well. Results are expressed as percentage of inhibition and the IC50 values were calculated by non-linear curve fitting using GraphPad™ Prism software (version 6 for Windows).

[2] = tested on: MMP13; experiment: Gene expression in rat articular chondrocytes under IL-1β stimulation, MMP13; type: cell-based; design: key to MMP13 gene expression, no effect: ne: no effect
Description: (§1) For gene expression analysis, 10 days after plating, the medium was changed and substituted with DMEM GlutaMAX I 0.4% to synchronize the cells. The cells were then co-treated in DMEM GlutaMAX I 0.4% with different concentrations of the test compounds and […] at a final concentration of 2 ng/ml for 6 h and 24 h. The test compound concentrations used have been chosen on the basis of the toxicity data.
(§2) At the end of the incubation, the supernatant was discarded, the cell were washed with cold PBS1X and scraped with 200 μl of RNA lysis buffer 1X (Nucleic Acid Purification Lysis Solution, Applied Biosystems).
(§3) Total RNA was purified using ABI Prism™ 6100 Nucleic Acid PrepStation (Applied Biosystems) following manufacturer's instructions.
(§4) Total RNA was retrotranscribed using the High-Capacity cDNA Archive Kit (Applied Biosystems-Thermo Fisher Scientific) following manufacturer's instructions.
(§5) The specific probes and primers for RealTime PCR were from Applied Biosystems (Thermo Fisher Scientific) as Assays-on-Demand™, while the probe and primers for the endogenous control 18S was a PDAR (Pre-Developed TaqMan® Assay Reagents—Applied Biosystems-Thermo Fisher Scientific).
(§6) The assays were designed to amplify target cDNA without amplifying genomic DNA.
(§7) Gene expression analysis for IL-1β, IL-6 and ADAMTS-5 were performed at 6 h incubation, while the gene expression analysis for MMP3, MMP13 and COX2 were performed at 24 h incubation.
(§8) For each compound the maximal concentration tested was dependent on the toxicity results obtained on primary rat chondrocytes.
(§9) The data analysis, with the normalisation on the amplified values for the 18S was done following the specific instruction of Applied Biosystems for the relative quantification of gene expression.

[3] = tested on: IL-1β; experiment: Gene expression in rat articular chondrocytes under IL-1β stimulation, IL-1β; type: cell-based; settings: for IC50: Rattus norvegicus, Chondrocyte, 6 h incubation; for IL-1β gene expression, percentage of inhibitory effect at the highest non toxic concentration: 6 h
Description: as §1, §2, §3, §4, §5, §6, §7, §8, §9

[4] = target: VEGFR2 (Homo sapiens (Human), UniProt P35968); experiment: In vitro VEGFR2 kinase activity assay (Eurofins Cerep); type: biochemical; settings: read-out: VEGFR2 KINASE INHIBITION IC50
VEGFR2, sequence (P35968 20-1356): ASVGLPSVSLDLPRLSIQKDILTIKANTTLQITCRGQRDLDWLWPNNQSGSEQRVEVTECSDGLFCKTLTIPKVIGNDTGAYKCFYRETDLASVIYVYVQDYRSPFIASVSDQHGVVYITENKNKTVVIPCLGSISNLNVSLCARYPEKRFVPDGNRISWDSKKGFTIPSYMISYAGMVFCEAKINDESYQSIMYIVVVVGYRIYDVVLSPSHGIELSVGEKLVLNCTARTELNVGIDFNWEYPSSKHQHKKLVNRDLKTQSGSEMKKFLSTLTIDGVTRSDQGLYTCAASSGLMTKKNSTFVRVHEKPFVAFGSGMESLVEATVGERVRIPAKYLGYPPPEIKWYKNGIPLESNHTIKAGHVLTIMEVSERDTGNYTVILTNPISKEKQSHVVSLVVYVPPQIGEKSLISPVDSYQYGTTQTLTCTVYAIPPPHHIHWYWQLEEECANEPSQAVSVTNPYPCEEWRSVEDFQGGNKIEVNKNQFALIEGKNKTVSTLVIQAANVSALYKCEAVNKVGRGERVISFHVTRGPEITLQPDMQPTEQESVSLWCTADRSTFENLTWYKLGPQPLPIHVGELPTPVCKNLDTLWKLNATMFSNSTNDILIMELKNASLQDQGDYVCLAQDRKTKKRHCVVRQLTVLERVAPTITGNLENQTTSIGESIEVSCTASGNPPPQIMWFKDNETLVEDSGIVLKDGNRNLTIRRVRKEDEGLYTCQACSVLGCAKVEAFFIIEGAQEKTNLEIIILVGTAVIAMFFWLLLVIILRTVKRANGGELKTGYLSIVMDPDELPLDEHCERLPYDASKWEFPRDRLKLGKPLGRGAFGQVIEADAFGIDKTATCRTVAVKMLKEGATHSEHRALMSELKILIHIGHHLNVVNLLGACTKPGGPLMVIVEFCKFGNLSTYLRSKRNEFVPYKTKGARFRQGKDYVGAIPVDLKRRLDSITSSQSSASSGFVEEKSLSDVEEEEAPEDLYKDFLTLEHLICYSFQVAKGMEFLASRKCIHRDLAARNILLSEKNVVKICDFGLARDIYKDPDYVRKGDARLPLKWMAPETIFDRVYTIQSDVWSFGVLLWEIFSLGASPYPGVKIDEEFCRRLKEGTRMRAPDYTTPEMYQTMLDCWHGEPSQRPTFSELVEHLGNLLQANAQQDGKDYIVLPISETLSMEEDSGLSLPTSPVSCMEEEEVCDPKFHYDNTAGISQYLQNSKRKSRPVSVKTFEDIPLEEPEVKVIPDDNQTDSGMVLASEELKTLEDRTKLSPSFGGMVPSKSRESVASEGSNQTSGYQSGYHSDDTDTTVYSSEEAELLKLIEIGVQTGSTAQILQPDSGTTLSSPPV
Description: The VEGFR2 kinase inhibitory activity of representative examples of compounds of Formula (I) assays was evaluated in Eurofins Cerep (France). The concentration range of the inhibitors under investigation was from 10^−8 M up to 10^−5 M final concentration. Some compounds were re-tested in a concentration-range starting from 10^−9 M. The results are expressed as a percent of control activity (in the absence of test compound) and the IC50 values were determined by non-linear regression analysis of the inhibition/concentration curves generated with mean replicate values.

[5] = tested on: rat primary articular chondrocytes; experiment: Toxicity analysis (MTT) in rat primary chondrocytes; settings: for First toxic concentration at 24 h: rat primary chondrocytes
Description: Purified chondrocytes were resuspended in DMEM glutaMAX 10% and plated in a 96X well plate for toxicity analysis and in a 6X well plate for gene expression analysis.
For toxicity analysis cells were then treated with the different compounds for 24 and 48 h. At the end of the incubation time, the medium was removed and was substituted with a mixture 10:1 of DMEM glutaMAX 10%—MTT (2 mg/ml) for 1 h at 37° C. in the cell incubator. After this incubation, the precipitated salt was dissolved with 100 μl of DMSO and the plate was read at 540 nm. The toxicity analysis were performed to decide the maximal non toxic concentration of each compound used in the gene expression assay.

[6] = tested on: MMP3; experiment: Gene expression in rat articular chondrocytes under IL-1β stimulation, MMP3; type: cell-based; design: key to MMP3 gene expression, no effect: ne: no effect; settings: for MMP3 gene expression, no effect: 24 h; for IC50: Rattus norvegicus, Chondrocyte, 24 h incubation
Description: as §1, §2, §3, §4, §5, §6, §7, §8, §9

[7] = tested on: ADAMTS-5; experiment: Gene expression in rat articular chondrocytes under IL-1β stimulation, ADAMTS-5; type: cell-based; design: key to ADAMTS-5 gene expression, no effect: ne: no effect; settings: for IC50: Rattus norvegicus, Chondrocyte, 6 h incubation
Description: as §1, §2, §3, §4, §5, §6, §7, §8, §9

[8] = tested on: COX2; experiment: Gene expression in rat articular chondrocytes under IL-1β stimulation, COX2; type: cell-based; settings: for COX2 gene expression, percentage of inhibitory effect at the highest non toxic concentration: 24 h
[9] = tested on: IL-6; experiment: Gene expression in rat articular chondrocytes under IL-1β stimulation, IL-6; type: cell-based; settings: for IL-6 gene expression, percentage of inhibitory effect at the highest non toxic concentration: 6 h; for IC50: Rattus norvegicus, Chondrocyte, 6 h incubation
Description: as §1, §2, §3, §4, §5, §6, §7, §8, §9

[10] = tested on: NF-kB; experiment: Gene reporter (GR) assay, NF-kB activation after TNFα in JB6 Cl 41-5a (P+) cells; type: cell-based, murine; settings: for IC50: TNFα 2 ng/ml, non toxic concentrations, read-out: Gene reporter (GR) inhibition IC50
Source text: To determine if the compounds of the invention were active also in a cellular model, a gene reporter assay was established in a cell line (JB6 Cl 41-5a (P+)) know to activate Fyn kinase via an inflammatory stimuli (TNFα). GR assay measures the activation of the nuclear transcription factor NF-kB, situated down-stream the Fyn activation pathway. Products active in this analysis has to penetrate in the cell and inhibit the activation pathway of NF-kB.
The murine epithelial cell line JB6 Cl 41-5a (P+) (ATCC® Cat. #CRL-2010) was stably transfected with the pGL4.32[luc2P/NFkB-RE/Hygro] vector (Promega). Clonal selection was achieved by limiting with 80 μg/ml Hygromycin B. The clones were tested for their response to TNFα stimulus.
JB6(P+) NFkB-RE-luc2P transfected cells were used for the analysis of NF-kB activity modulation, after TNFα stimulation, by Fyn-inhibitors.
Cells were pre-treated with the different compounds for 1 h and then stimulated with 2 ng/ml TNFα for 4 h. Each tested condition was analyzed in quadruplicate.
The luciferase analysis was performed with ONE-Glo™+ToxLuciferase Reporter and Cell Viability Assay kit (Promega).

[11] = tested on: bovine nasal septum cartilage; experiment: Inhibition of cartilage degradation (GAG release) induced by IL-1α in a bovine in vitro model; type: cell-based; settings: Bos taurus, read-out: Bovine cartilage degradation induced by IL-1α, % inhibitory effect at max concentration
Description: Nasal septum cartilage was collected from an eight months-old male bovine in a local slaughterhouse.
Tissue was sprayed with ethanol 70% and immediately put in sterile PBS with Antibiotic-Antimycotic stabilized solution (PBS-AASS). It was cut in order to obtain small punches (diameter 2 mm, 1 mm-thick). washed with sterile PBS-AASS, the slices were transferred in a 96X well plate (one piece per well) in DMEM 10%+AASS. 48 h later the cartilage was stimulated in white DMEM+0.1% BSA+AASS with IL-1α […] in the absence or presence of the studied compounds.
The compounds concentration used in this analysis was chosen depending on the toxicity results obtained in rat primary chondrocytes at 48 h of incubation.
After 48 h stimulation, the culture medium was collected and stored at −80° C. The cartilage punches were digested with papain at 65° C. for 2 h in phosphate buffer (0.05M pH 6.5 with 2 mM N-acetil-L-cisteine and 2 mM EDTA).
The glycosaminoglycan (GAG) determination was done by a colorimetric assay with 1,9 dimethyl methylene blue (DMB).
Digested cartilage samples were diluted in PBS-BSA 1%. To 100 μl of diluted samples or standard we added 100 μl DMB 2X. After 5-20 min incubation the samples were read at 590 nm (Titertek Multiscan Plus).
The cartilage degradation induced by IL-1α was expressed as: GAG (medium)/total GAG (medium+cartilage)×100

[12] = Rattus norvegicus, Chondrocyte, 24 h incubation

Fyn, sequence (P06241 whole entry): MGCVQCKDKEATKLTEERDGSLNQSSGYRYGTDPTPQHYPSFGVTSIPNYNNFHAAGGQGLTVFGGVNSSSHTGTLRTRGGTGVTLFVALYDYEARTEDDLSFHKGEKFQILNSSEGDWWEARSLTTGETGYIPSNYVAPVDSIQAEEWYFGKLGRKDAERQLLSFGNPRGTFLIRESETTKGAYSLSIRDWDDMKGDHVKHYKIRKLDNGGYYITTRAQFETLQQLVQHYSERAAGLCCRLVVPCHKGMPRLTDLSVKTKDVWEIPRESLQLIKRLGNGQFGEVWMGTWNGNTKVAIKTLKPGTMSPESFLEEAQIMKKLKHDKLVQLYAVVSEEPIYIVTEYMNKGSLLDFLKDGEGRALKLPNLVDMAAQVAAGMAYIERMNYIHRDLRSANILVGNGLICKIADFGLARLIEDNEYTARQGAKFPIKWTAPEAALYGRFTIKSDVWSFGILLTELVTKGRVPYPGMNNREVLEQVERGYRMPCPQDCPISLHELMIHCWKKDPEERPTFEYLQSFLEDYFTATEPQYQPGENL

Row | SMILES | IC50 [1] [nM] | IC50 [3] [nM] | IC50 [4] [nM] | First toxic concentration at 24 h [5] [µM] | MMP3 gene expression, no effect [6] | COX2 gene expression, percentage of inhibitory effect at the highest non toxic concentration ([8]; 1 μM) | IC50 ([10]; Mus musculus, JB6 Cl 41-5a) [nM] | other results
1 | Cc1ccc(NC(=O)c2cc(S(=O)(=O)C3CC3)ccn2)cc1CCc1cc(Nc2cnccn2)[nH]n1 [Compound 8, 4-(cyclopropylsulfonyl)-N-(4-methyl-3-(2-(5-(pyrazin-2-ylamino)-1H-pyrazol-3-yl)ethyl)phenyl)picolinamide] | 20 | 300 | < 10 | 3 | ne | 1 μM 63% | < 250 | MMP13 gene expression, no effect ([2]; 24 h): ne; ADAMTS-5 gene expression, no effect ([7]; 6 h): ne; IL-6 gene expression, percentage of inhibitory effect at the highest non toxic concentration ([9]; 1 μM): 1 μM 99%; IC50 [10]: 233 nM
2 | Cc1ccc(NC(=O)c2cc(C(F)(F)F)ccc2F)cc1CCc1cc(Nc2cnccn2)[nH]n1 [Compound 7, 2-fluoro-N-(4-methyl-3-(2-(5-(pyrazin-2-ylamino)-1H-pyrazol-3-yl)ethyl)phenyl)-5-(trifluoromethyl)benzamide] | 63 | 100 | < 10 | 3 | ne | 1 μM 41% | 1160 | MMP13 gene expression, percentage of inhibitory effect at the highest non toxic concentration ([2]; 1 μM, 24 h): 1 μM 38%; ADAMTS-5 gene expression, percentage of inhibitory effect at the highest non toxic concentration ([7]; 1 μM, 6 h): 1 μM 81%; IC50 [9]: 200 nM
3 | Cc1ccc(NC(=O)c2cccc(C(F)(F)F)c2)cc1CCc1cnc(Nc2cnccn2)s1 [Compound 49, N-(4-methyl-3-(2-(2-(pyrazin-2-ylamino)thiazol-5-yl)ethyl)phenyl)-3-(trifluoromethyl) benzamide] | 143 | – | – | 3 | – | 1 μM 93% | 422 | IC50 [2, 12]: 240 nM; IL-1β gene expression, percentage of inhibitory effect at the highest non toxic concentration ([3]; 1 μM): 1 μM 91%; First toxic concentration at 48 h in rat primary chondrocytes [5]: 3 µM; IC50 [6]: 500 nM; IC50 [7]: 200 nM; IL-6 gene expression, percentage of inhibitory effect at the highest non toxic concentration ([9]; 1 μM): 1 μM 100%; inhibition at 1 µM ([11]; 1 μM): 35%
4 | Cc1ccc(NC(=O)c2cccc(S(C)(=O)=O)c2)cc1CCc1cc(Nc2cnccn2)[nH]n1 [Compound 1, N-(4-methyl-3-(2-(5-(pyrazin-2-ylamino)-1H-pyrazol-3-yl)ethyl)phenyl)-3-(methylsulfonyl)benzamide] | – | 2100 | – | >10 | ne | – | 5080 | MMP13 gene expression, percentage of inhibitory effect at the highest non toxic concentration ([2]; 10 μM, 24 h): 10 μM 38%; First toxic concentration at 48 h in rat primary chondrocytes [5]: 10 µM; ADAMTS-5 gene expression, percentage of inhibitory effect at the highest non toxic concentration ([7]; 10 μM, 6 h): 10 μM 38%; IC50 [8, 12]: 3100 nM; IC50 [9]: 1600 nM; inhibition at 3 µM ([11]; 3 μM): 88%
5 | Cc1nc(C#N)cc(Nc2cc(CCc3cc(NC(=O)c4ccc(CN(C)C)c(C(F)(F)F)c4)ccc3F)n[nH]2)n1 [Compound 39, N-(3-(2-(5-((6-cyano-2-methylpyrimidin-4-yl)amino)-1H-pyrazol-3-yl)ethyl)-4-fluorophenyl)-4-((dimethylamino)methyl)-3-(trifluoromethyl)benzamide] | 1 | – | 11 | 10 | – | – | 1060 | MMP13 gene expression, percentage of inhibitory effect at the highest non toxic concentration ([2]; 3 μM, 24 h): 3 μM 90%; IL-1β gene expression, percentage of inhibitory effect at the highest non toxic concentration ([3]; 3 μM): 3 μM 100%; IC50 [6]: 1200 nM; IC50 [7]: 500 nM; COX2 gene expression, percentage of inhibitory effect at the highest non toxic concentration ([8]; 3 μM): 3 μM 99%; IL-6 gene expression, percentage of inhibitory effect at the highest non toxic concentration ([9]; 3 μM): 3 μM 100%
6 | O=C(Nc1ccc(Cl)c(CCc2cc(Nc3cnccn3)[nH]n2)c1)c1cccc(C(F)(F)F)c1 [Compound 16, N-(4-chloro-3-(2-(5-(pyrazin-2-ylamino)-1H-pyrazol-3-yl)ethyl)phenyl)-3-(trifluoromethyl)benzamide] | 24 | – | < 10 | – | – | – | 321 | –
7 | CC(C)Cc1ccc(C(=O)Nc2ccc(F)c(CCc3cc(NC(=O)c4ncccn4)[nH]n3)c2)cn1 [Compound 9, N-(3-(2-fluoro-5-(6-isobutylnicotinamido)phenethyl)-1H-pyrazol-5-yl)pyrimidine-2-carboxamide] | 16 | – | < 10 | – | – | – | – | inhibition at 10 µM ([10]; Mus musculus, JB6 Cl 41-5a, 10 μM, read-out: Gene reporter (GR) inhibition % effect at max concentration): 47%
